Five molecules from article PMC11062922 (Nature Chemical Biology, 2023) can be followed below.

Test [1] deals with T1, CDKL5 (Homo sapiens, UniProt O76039).
T1 construct: endogenous in cells
T1 sequence (O76039 1-960): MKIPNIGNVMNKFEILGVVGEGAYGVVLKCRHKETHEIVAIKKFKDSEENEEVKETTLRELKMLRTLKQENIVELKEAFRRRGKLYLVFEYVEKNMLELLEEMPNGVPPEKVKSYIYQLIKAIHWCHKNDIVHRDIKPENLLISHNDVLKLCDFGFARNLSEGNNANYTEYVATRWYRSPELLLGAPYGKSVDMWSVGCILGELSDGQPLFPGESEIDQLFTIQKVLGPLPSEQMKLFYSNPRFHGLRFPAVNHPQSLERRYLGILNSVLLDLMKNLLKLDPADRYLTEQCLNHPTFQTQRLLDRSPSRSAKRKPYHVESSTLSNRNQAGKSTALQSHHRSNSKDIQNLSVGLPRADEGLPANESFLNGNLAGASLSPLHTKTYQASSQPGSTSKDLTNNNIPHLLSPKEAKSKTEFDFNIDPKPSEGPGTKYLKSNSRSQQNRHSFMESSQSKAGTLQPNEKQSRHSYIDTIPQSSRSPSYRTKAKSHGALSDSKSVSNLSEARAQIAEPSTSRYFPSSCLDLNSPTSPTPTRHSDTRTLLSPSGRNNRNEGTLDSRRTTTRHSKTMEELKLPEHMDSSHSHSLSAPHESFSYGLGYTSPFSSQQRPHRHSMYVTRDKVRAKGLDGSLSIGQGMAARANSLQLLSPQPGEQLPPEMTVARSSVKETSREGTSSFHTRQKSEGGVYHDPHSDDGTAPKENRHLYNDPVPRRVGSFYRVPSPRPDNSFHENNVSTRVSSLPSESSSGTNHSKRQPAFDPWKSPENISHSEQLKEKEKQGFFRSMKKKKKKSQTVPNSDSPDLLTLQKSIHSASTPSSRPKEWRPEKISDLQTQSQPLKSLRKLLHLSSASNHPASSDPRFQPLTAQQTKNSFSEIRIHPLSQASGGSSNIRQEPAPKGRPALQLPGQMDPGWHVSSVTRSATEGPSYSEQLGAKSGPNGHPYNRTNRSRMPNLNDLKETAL
Put plainly: Kinobeads competition binding: CDKL5. The settings on record: target CDKL5. The text has this: Supplement 41589_2023_1459_MOESM4_ESM.xlsx, sheet "CATDS matrix" | column: CDKL5

In test [2] the target is T2, FLT4 (Homo sapiens, UniProt P35916).
T2 construct: endogenous in cells
T2 sequence (P35916 25-1363): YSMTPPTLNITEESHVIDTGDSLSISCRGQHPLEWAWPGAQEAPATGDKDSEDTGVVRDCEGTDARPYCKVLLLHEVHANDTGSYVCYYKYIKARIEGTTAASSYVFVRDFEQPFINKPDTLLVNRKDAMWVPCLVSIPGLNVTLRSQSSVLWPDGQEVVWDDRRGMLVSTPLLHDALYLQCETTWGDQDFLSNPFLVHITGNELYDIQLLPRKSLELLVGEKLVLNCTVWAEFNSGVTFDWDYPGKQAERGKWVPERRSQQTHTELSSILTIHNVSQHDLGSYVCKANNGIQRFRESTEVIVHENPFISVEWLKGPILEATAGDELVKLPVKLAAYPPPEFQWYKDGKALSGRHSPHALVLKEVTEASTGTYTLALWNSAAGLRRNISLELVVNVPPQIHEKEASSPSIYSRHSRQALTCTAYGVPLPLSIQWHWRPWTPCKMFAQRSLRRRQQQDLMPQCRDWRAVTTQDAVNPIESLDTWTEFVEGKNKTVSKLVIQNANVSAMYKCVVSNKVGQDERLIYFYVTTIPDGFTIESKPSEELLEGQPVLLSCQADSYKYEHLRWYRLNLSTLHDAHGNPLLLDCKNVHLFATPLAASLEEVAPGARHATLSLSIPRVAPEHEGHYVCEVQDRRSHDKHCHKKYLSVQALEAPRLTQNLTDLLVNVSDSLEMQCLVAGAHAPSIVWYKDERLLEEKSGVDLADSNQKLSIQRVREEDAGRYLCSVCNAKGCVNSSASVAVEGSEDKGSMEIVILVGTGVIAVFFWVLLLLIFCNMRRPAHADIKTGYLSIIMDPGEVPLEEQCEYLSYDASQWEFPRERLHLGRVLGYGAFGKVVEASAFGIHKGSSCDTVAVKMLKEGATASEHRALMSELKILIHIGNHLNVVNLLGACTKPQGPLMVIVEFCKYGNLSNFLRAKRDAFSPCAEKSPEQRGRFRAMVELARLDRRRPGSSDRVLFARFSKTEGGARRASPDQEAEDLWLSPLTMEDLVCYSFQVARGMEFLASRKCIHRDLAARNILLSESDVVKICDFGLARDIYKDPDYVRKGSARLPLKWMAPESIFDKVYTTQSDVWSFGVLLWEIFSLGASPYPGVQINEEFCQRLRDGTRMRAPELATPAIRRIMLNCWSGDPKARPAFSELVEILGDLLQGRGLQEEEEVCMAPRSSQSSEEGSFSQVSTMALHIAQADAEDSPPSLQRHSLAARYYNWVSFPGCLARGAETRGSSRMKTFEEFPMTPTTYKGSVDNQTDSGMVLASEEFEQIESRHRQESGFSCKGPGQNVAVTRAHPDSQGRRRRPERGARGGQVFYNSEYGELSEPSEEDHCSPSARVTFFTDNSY
Put plainly: Kinobeads competition binding: FLT4.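 Further: share of total target engagement due to this protein at one drug concentration.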 The settings on record: target FLT4.

The target of test [3] is T3, IKBKE (Homo sapiens, UniProt Q14164).
T3 construct: endogenous in cells
T3 sequence (Q14164 1-716): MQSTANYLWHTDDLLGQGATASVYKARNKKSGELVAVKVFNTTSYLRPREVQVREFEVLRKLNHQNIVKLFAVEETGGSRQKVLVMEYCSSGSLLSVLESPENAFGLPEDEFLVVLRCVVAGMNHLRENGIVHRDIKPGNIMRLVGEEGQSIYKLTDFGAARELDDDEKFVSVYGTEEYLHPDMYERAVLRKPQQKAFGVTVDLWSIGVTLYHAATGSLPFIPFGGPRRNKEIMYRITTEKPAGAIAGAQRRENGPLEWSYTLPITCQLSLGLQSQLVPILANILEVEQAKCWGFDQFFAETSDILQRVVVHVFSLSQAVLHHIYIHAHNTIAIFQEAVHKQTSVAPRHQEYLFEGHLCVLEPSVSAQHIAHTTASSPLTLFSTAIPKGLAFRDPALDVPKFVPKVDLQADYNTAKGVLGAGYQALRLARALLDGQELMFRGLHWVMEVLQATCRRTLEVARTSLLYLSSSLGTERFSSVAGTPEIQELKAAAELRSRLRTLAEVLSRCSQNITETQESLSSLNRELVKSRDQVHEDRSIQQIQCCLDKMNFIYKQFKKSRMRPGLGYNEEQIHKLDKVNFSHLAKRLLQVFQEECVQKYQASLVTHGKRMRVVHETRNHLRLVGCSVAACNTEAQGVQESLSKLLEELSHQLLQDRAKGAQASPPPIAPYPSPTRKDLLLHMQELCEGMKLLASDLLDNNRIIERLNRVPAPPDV
Put plainly: Kinobeads competition binding: IKBKE. To be noted: target IKBKE.

For test [4], the system named is MARK3. Nature of the test: Kinobeads competition binding: MARK3. On the set-up: species or system human. To be noted: target MARK3.
For test [5], the system named is NEK2. Put plainly: Kinobeads competition binding: NEK2. The settings on record: target NEK2. On the set-up: species or system human.
In test [6] the test system is NEK3. Put plainly: Kinobeads competition binding: NEK3. Details: species or system human. To be noted: target NEK3.
Test [7] concerns NLK. Nature of the test: Kinobeads competition binding: NLK.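 Further: selectivity score: engagement of this protein divided by summed engagement of all targets.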 The settings on record: target NLK. On the set-up: species or system human.

Molecules are shown by their SMILES.

Regarding `Nc1ncnc2[nH]c(-c3ccccc3)nc12` [AH5015_KCGS], the CATDS in test [1], in test [2], in test [3], in test [4], in test [5] and in test [6] was 0 throughout. The molecule further showed a CATDS in test [7] of 0.

As to `CCc1cc2c(cc1N1CCC(N3CCOCC3)CC1)C(C)(C)c1[nH]c3cc(C#N)ccc3c1C2=O` [Alectinib], the CATDS in test [1], in test [2], in test [3], in test [4], in test [5] and in test [6] was 0 in each case. Also, the CATDS in test [7] is listed as 0.

Turning to `N#CC1(c2ccc(NC(=O)c3cccnc3NCc3ccncc3)cc2)CCCC1` [Apatinib], the CATDS in test [1], in test [2], in test [3], in test [4], in test [5] and in test [6] was 0 in each case. Also, the CATDS in test [7] is reported as 0.

As for `CCN1CCN(Cc2ccc(Nc3ncc(F)c(-c4cc(F)c5nc(C)n(C(C)C)c5c4)n3)nc2)CC1` [Abemaciclib], the CATDS is on record as 0.6907 in test [1]; 0 in test [2]; 0 in test [3]; 0 in test [4]; 0 in test [5]; 0 in test [6]. This molecule also registered a CATDS in test [7] of 0.

The molecule `CN(C)C/C=C/C(=O)Nc1cc2c(Nc3ccc(F)c(Cl)c3)ncnc2cc1O[C@H]1CCOC1` [Afatinib] registered a CATDS in test [1] of 0.
